According to patent US7939275B2, “Methods for detection of chlamydia in samples” (priority 2005, dated 2011):
Like-named read-outs stand apart in the source and are kept apart here.

Key:
anti-Chlamydia abzymes [1] = assay type: biochemical, human
Procedure: (§1) For chemical inactivation, a diluent solution was divided into two portions. In one portion, an abzyme inhibitor was added. The following abzyme inhibitors were used DMSO, 0.1-10%; sodium azide, 10^−5-10^−3M; catechins, 10^−6-10^−3M; ketek, […]; lactobacilli culture, 1 μM-1 mM; ascorbic acid, 10^−4-10^−3M; acetyl salicylic acid, 10^−4-10^−3M.
(§2) The serum sample was split in two aliquots and one aliquot was diluted by solution containing the abzyme inhibitor, the second aliquot was diluted by the control solution. The aliquots were then tested in the same fashion.
Lipid peroxidation was assessed as a level of MDA concentration which was measured by spectrophotometric method [Draper, H. H. et al Free Radic. Biol. Med. (1993) 15, 353]. This method is based on the formation of a coloured product when malondialdehyde reacts with thiobarbituric acid. Briefly, the level of abzymes in a sample was determined as follows: Samples of sera were diluted 1:1 by 0.05M acetate buffer pH 4.0 to make the final pH of these samples between 5.6-5.8. 990 μl of the diluted serum was mixed with 10 μl of the commercial live ovine Chlamydia vaccine (Intervet). Samples were incubated overnight (12-16 hours) at 37° C. 250 μl of 40% trichloroacetic acid and 250 μl of 1 mM 2-thiobarbituric acid was added to each sample. All samples were placed in a water bath and boiled for 30 minutes. Samples were cooled down and centrifuged at 3,000 g for 10 minutes. The supernatants were collected and their absorption measured at λ 525 nm to determine the concentration of malondialdehydes (MDA), which are products of lipid peroxidation.

anti-Chlamydia abzymes [2] = assay type: biochemical, human; remark: listed apart in the source
Procedure: as §1, §2
ELISA assays were performed using Medac materials and reagents, which were used in accordance with the manufacturers instructions.
Briefly, serum samples from patients were treated as described above. 50 μl of sample diluent was pipetted into microtitre well Al as blank, and 50 μl of the negative control, Positive Control and the diluted patients' samples were pipetted into other microtitre wells. The microplate wells were incubated for 60 min (±5 min) at 37° C. (±1° C.) in a humid chamber and then washed three times with 200 μl wash buffer per well. 50 μl of Conjugate was then added to each well and the microplate wells incubated again for 60 min (±5 min) at 37° C. (±1° C.) in a humid chamber and then washed. 50 μl of TMB-Substrate, was added to each well and the microplate wells incubated for 30 min (±2 min) at 37° C. (±1° C.) in a humid chamber. The reaction was stopped by adding 100 μl of Stop Solution, to each well.
Photometric reading was performed using a plate reader at 450 nm (ref. 620-650 nm) within 15 min after adding the Stop Solution.
To calculate the results, the OD value of the blank (well A1) was subtracted from all other OD values. […] Cut-off=mean OD value of the Negative Control+0.380. Grey zone=Cut-off±10%

[3] = patient serum, abzyme inhibitor added to diluent

| Compound | Inhibition of abzymes ability to cause: Serum lipid peroxidation, in MDA assay (anti-Chlamydia abzymes [1]) | Inhibition of abzymes ability to cause: Damage of Chlamydia pneumoniae antigen, in ELISA (anti-Chlamydia abzymes [2]) | Inhibition of abzymes ability to cause: Serum lipid peroxidation, in MDA assay (anti-Chlamydia abzymes [1]; [3]) | Inhibition of abzymes ability to cause: Damage of Chlamydia pneumoniae antigen, in ELISA (anti-Chlamydia abzymes [2]; [3]) |
| --- | --- | --- | --- | --- |
| Cc1c(O)cc2c(c1C)O[C@](C)(CCC[C@H](C)CCC[C@H](C)CCCC(C)C)CC2 [(+) y-Tocopherol] | Negative | Negative | – | – |
| Cc1c(C)c2c(c(C)c1O)CC[C@@](C)(CCC[C@H](C)CCC[C@H](C)CCCC(C)C)O2 [(+) α-Tocopherol] | – | – | Negative | Negative |
| CC(=O)Oc1ccccc1C(=O)O [Acetyl salicylic acid] | Positive | Positive | – | – |
| O=C1O[C@H]([C@@H](O)CO)C(O)=C1O [Ascorbic acid] | – | – | Positive | Positive |
| O=C(O)c1ccccc1 [Benzoic acid] | Negative | Negative | – | – |
| OC[C@@H](O)[C@@H](O)[C@H](O)[C@H](O)CO [D-Mannitol] | – | – | Negative | Negative |
| C[S+](C)[O-] [DMSO] | – | – | Positive | Positive |
| O=C(O)CN(CCN(CC(=O)O)CC(=O)O)CC(=O)O [EDTA] | Positive | Positive | – | – |
| O=C(O)CN(CCOCCOCCN(CC(=O)O)CC(=O)O)CC(=O)O [EGTA] | – | – | – | Positive |
| CC(C)=CCC/C(C)=C/C=C/C(C)=C/C=C/C(C)=C/C=C/C=C(C)/C=C/C=C(C)/C=C/C=C(\C)CCC=C(C)C [Lycopene] | – | – | Negative | Negative |
| CC[C@H]1OC(=O)[C@H](C)C(=O)[C@H](C)[C@@H](O[C@@H]2O[C@H](C)C[C@H](N(C)C)[C@H]2O)[C@](C)(OC)C[C@@H](C)C(=O)[C@H](C)[C@H]2N(CCCCn3cnc(-c4cccnc4)c3)C(=O)O[C@]12C [Telithromycin, Ketek, Telithromycin] | – | – | Positive | Positive |
| CC1=C(/C=C/C(C)=C/C=C/C(C)=C/C=C/C=C(C)/C=C/C=C(C)/C=C/C2=C(C)CCCC2(C)C)C(C)(C)CCC1 [β-Carotene] | Negative | Negative | – | – |
| (+) Catechin gallate | – | – | Positive | Positive |
| Haemoglobin | Positive | Positive | – | – |
| PMS | Negative | Negative | – | – |
